Active and inactive are the calls of the source. The calls are words filed in the database; no cut-off is given here.
How the values were obtained:
[1] = system: Receptor-type tyrosine-protein kinase FLT3 (Homo sapiens), P36888 [K663Q]; assay: Binding affinity to human partial length FLT3 K663Q mutant (V592 to Y969 residues) expressed in bacterial expression system assessed as residual binding level at 100 nM by Kinomescan method relative to control
NCI-H1975 = assay: Antiproliferative activity against human H1975 cells overexpressing EGFR L858R/T790M mutant assessed as cell growth inhibition after 72 hrs; format: functional, cell-based; settings: NCI-H1975, 72 h
[2] = target: Focal adhesion kinase 1 (Homo sapiens) (UniProt Q05397); assay: Induction of FAK degradation in human NCI-H2228 cells at 1 nM after 16 hrs by Western blot analysis; format: cell-based
[3] = system: Epidermal growth factor receptor (Homo sapiens), P00533 [T790M]; assay: Binding affinity to human partial length EGFR T790M mutant (R669 to G1022 residues) expressed in mammalian expression system assessed as residual binding level at 100 nM by Kinomescan method relative to control
Calu-1 [4] = assay: Induction of G1 cell cycle arrest in human Calu-1 cells at 100 nM after 24 to 48 hrs; format: functional, cell-based; settings: time 24-48 hrs
[5] = target: Serine/threonine-protein kinase SBK1 (Homo sapiens) (UniProt Q52WX2); assay: Binding affinity to wild-type human partial length SBK1 (P23 to P348 residues) expressed in mammalian expression system assessed as residual binding level at 100 nM by Kinomescan method relative to control
[6] = target: Serine/threonine-protein kinase RIO1 (Homo sapiens) (UniProt Q9BRS2); assay: Binding affinity to wild-type human full length RIOK1 (M1 to K568 residues) expressed in bacterial expression system assessed as residual binding level at 100 nM by Kinomescan method relative to control
[7] = target: Focal adhesion kinase 1 (Homo sapiens) (UniProt Q05397); assay: Induction of FAK degradation in human A549 cells at 1 nM after 16 hrs by Western blot analysis; format: cell-based
[8] = target: NUAK family SNF1-like kinase 2 (Homo sapiens) (UniProt Q9H093); assay: Binding affinity to wild-type human partial length SNARK (P22 to A333 residues) expressed in mammalian expression system assessed as residual binding level at 100 nM by Kinomescan method relative to control
[9] = system: Receptor-type tyrosine-protein kinase FLT3 (Homo sapiens), P36888 [UNDEFINED MUTATION]; assay: Binding affinity to human partial length FLT3 ITD mutant expressed in bacterial expression system assessed as residual binding level at 100 nM by Kinomescan method relative to control
[10] = target: Signal transducer and activator of transcription 3 (Homo sapiens) (UniProt P40763); assay: Inhibition of STAT3 downstream signalling in human SR cells assessed as reduction in pSTAT3 level at 10 nM by Western blot analysis; format: cell-based
NCI-H2228 [11] = assay: Down regulation of RSK1 in human NCI-H2228 cells at 1 to 1000 nM after 16 hrs by Western blot analysis; format: functional, cell-based; settings: dose 1-1000 nM
[12] = target: Focal adhesion kinase 1 (Homo sapiens) (UniProt Q05397); assay: Induction of FAK degradation in human MDA-MB-231 cells at 10 nM treated for 16 hrs followed by compound washout and measured after 48 hrs by Western blot analysis; format: cell-based
EML4-ALK (Homo sapiens) = EML4-ALK (Homo sapiens) (UniProt Q9UM73+Q9HC35); assay: Induction of EML4-ALK degradation in human […] at 0.1 to 50 nM by Western blot analysis; format: cell-based; settings: dose 0.1-50 nM
[13] = target: Focal adhesion kinase 1 (Homo sapiens) (UniProt Q05397); assay: Induction of FAK degradation in human Calu-1 cells at 1 nM after 16 hrs by Western blot analysis; format: cell-based
[14] = system: Receptor-type tyrosine-protein kinase FLT3 (Homo sapiens), P36888 [N841I]; assay: Binding affinity to human partial length FLT3 N841I mutant (V592 to Y969 residues) expressed in bacterial expression system assessed as residual binding level at 100 nM by Kinomescan method relative to control
[15] = target: Non-receptor tyrosine-protein kinase TNK1 (Homo sapiens) (UniProt Q13470); assay: Binding affinity to wild-type human full length TNK1 (M1 to P661 residues) expressed in bacterial expression system assessed as residual binding level at 100 nM by Kinomescan method relative to control
[16] = target: Protein-tyrosine kinase 2-beta (Homo sapiens) (UniProt Q14289); assay: Induction of PYK2 degradation in human MDA-MB-231 cells at 10 nM after 1 to 2 hrs by Western blot analysis; format: cell-based; settings: time 1-2 hrs
[17] = target: Serine/threonine-protein kinase ULK1 (Homo sapiens) (UniProt O75385); assay: Binding affinity to wild-type human partial length ULK1 (M1 to T309 residues) expressed in mammalian expression system assessed as residual binding level at 100 nM by Kinomescan method relative to control
SR = assay: Down regulation of PYK2 in human SR cells at 0.1 to 1000 nM after 16 hrs by Western blot analysis; format: functional, cell-based; settings: dose 0.1-1000 nM
MDA-MB-231 = assay: Induction of G1 cell cycle arrest in human MDA-MB-231 cells at 100 nM after 24 to 48 hrs; format: functional, cell-based; settings: time 24-48 hrs
[18] = target: Tyrosine-protein kinase JAK3 (Homo sapiens) (UniProt P52333); assay: Binding affinity to wild-type human partial length JAK3 JH1 catalytic domain (I781 to S1124 residues) expressed in mammalian expression system assessed as residual binding level at 100 nM by Kinomescan method relative to control
[19] = target: Leucine-rich repeat serine/threonine-protein kinase 2 (Homo sapiens) (UniProt Q5S007); assay: Binding affinity to wild-type human partial length LRRK2 (H970 to E2527 residues) expressed in mammalian expression system assessed as residual binding level at 100 nM by Kinomescan method relative to control
NCI-H2228 [20] = assay: Down regulation of FAK in human NCI-H2228 cells at 1 to 1000 nM after 16 hrs by Western blot analysis; format: functional, cell-based; settings: dose 1-1000 nM
[21] = system: Receptor-type tyrosine-protein kinase FLT3 (Homo sapiens), P36888 [UNDEFINED MUTATION]; assay: Binding affinity to human partial length FLT3 ITD/F691L double mutant expressed in bacterial expression system assessed as residual binding level at 100 nM by Kinomescan method relative to control
[22] = system: Epidermal growth factor receptor (Homo sapiens), P00533 [UNDEFINED MUTATION]; assay: Binding affinity to human partial length EGFR L747-E749del/A750P mutant expressed in bacterial expression system assessed as residual binding level at 100 nM by Kinomescan method relative to control
[23] = system: Epidermal growth factor receptor (Homo sapiens), P00533 [L858R,T790M]; assay: Binding affinity to human partial length EGFR L858R/T790M double mutant (R669 to V1011 residues) expressed in mammalian expression system assessed as residual binding level at 100 nM by Kinomescan method relative to control
Calu-1 [24] = assay: Down regulation of FAK in human Calu-1 cells at 1 to 1000 nM after 16 hrs by Western blot analysis; format: functional, cell-based; settings: dose 1-1000 nM
[25] = target: Focal adhesion kinase 1 (Homo sapiens) (UniProt Q05397); assay: Induction of FAK degradation in human MDA-MB-231 cells at 10 nM after 1 to 2 hrs by Western blot analysis; format: cell-based; settings: time 1-2 hrs

Sequence of Focal adhesion kinase 1 (Homo sapiens) (Q05397 2-1052 limits assumed): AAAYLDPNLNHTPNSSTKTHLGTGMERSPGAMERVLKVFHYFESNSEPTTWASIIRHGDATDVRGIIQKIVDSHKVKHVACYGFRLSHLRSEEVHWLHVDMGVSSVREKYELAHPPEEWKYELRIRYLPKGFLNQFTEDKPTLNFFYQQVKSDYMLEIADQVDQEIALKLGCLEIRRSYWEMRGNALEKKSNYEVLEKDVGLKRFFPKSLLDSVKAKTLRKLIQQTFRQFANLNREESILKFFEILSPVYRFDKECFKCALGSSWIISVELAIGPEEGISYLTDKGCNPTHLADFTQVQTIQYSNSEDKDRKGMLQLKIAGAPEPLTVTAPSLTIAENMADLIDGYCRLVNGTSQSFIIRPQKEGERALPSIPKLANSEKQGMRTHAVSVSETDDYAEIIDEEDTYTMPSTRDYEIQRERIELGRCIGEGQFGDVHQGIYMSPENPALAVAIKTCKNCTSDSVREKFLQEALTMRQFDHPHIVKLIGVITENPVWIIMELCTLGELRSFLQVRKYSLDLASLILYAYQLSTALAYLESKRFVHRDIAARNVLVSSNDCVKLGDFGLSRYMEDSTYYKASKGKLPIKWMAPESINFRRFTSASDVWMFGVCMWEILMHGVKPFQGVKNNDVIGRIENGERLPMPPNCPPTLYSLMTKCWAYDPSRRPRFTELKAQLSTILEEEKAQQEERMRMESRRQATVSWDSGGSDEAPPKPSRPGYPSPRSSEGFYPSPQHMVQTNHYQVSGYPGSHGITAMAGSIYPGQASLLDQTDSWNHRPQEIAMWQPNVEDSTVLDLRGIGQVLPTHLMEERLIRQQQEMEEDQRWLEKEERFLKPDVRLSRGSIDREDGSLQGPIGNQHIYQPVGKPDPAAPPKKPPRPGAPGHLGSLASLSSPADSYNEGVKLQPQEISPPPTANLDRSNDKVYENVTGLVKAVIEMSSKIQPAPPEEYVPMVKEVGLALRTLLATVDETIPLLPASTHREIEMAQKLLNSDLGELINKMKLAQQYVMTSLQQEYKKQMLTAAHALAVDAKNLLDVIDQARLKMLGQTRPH
Sequence of Serine/threonine-protein kinase ULK1 (Homo sapiens) (O75385 whole entry, the tested form may be a part): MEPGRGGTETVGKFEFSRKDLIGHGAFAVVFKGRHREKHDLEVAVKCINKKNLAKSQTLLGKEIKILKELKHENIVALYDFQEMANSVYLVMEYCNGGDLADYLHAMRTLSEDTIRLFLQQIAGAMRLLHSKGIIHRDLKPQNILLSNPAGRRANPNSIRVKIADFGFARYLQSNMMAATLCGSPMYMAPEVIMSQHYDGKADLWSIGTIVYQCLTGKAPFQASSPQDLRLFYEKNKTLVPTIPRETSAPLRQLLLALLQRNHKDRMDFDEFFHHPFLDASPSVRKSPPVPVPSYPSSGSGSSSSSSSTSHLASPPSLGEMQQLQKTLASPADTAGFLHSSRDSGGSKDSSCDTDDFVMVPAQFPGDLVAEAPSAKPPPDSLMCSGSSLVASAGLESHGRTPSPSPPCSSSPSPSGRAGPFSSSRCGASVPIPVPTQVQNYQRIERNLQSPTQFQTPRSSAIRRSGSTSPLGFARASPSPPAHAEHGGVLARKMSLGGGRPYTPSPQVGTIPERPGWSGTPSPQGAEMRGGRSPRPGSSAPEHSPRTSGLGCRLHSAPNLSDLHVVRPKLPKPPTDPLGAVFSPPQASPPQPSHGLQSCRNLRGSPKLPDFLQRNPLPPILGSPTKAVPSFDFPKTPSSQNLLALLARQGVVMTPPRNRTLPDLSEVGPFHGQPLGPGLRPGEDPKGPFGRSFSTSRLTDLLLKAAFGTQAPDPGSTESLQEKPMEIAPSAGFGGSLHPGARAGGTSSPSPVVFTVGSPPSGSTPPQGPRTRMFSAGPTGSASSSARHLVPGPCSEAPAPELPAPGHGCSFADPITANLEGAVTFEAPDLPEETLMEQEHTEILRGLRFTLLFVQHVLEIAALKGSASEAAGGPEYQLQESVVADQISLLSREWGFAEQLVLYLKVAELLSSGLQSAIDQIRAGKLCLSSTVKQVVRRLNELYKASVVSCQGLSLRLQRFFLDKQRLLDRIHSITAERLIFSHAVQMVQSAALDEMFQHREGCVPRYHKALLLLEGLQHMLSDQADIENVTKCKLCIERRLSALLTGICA
Sequence of Leucine-rich repeat serine/threonine-protein kinase 2 (Homo sapiens) (Q5S007 whole entry, the tested form may be a part): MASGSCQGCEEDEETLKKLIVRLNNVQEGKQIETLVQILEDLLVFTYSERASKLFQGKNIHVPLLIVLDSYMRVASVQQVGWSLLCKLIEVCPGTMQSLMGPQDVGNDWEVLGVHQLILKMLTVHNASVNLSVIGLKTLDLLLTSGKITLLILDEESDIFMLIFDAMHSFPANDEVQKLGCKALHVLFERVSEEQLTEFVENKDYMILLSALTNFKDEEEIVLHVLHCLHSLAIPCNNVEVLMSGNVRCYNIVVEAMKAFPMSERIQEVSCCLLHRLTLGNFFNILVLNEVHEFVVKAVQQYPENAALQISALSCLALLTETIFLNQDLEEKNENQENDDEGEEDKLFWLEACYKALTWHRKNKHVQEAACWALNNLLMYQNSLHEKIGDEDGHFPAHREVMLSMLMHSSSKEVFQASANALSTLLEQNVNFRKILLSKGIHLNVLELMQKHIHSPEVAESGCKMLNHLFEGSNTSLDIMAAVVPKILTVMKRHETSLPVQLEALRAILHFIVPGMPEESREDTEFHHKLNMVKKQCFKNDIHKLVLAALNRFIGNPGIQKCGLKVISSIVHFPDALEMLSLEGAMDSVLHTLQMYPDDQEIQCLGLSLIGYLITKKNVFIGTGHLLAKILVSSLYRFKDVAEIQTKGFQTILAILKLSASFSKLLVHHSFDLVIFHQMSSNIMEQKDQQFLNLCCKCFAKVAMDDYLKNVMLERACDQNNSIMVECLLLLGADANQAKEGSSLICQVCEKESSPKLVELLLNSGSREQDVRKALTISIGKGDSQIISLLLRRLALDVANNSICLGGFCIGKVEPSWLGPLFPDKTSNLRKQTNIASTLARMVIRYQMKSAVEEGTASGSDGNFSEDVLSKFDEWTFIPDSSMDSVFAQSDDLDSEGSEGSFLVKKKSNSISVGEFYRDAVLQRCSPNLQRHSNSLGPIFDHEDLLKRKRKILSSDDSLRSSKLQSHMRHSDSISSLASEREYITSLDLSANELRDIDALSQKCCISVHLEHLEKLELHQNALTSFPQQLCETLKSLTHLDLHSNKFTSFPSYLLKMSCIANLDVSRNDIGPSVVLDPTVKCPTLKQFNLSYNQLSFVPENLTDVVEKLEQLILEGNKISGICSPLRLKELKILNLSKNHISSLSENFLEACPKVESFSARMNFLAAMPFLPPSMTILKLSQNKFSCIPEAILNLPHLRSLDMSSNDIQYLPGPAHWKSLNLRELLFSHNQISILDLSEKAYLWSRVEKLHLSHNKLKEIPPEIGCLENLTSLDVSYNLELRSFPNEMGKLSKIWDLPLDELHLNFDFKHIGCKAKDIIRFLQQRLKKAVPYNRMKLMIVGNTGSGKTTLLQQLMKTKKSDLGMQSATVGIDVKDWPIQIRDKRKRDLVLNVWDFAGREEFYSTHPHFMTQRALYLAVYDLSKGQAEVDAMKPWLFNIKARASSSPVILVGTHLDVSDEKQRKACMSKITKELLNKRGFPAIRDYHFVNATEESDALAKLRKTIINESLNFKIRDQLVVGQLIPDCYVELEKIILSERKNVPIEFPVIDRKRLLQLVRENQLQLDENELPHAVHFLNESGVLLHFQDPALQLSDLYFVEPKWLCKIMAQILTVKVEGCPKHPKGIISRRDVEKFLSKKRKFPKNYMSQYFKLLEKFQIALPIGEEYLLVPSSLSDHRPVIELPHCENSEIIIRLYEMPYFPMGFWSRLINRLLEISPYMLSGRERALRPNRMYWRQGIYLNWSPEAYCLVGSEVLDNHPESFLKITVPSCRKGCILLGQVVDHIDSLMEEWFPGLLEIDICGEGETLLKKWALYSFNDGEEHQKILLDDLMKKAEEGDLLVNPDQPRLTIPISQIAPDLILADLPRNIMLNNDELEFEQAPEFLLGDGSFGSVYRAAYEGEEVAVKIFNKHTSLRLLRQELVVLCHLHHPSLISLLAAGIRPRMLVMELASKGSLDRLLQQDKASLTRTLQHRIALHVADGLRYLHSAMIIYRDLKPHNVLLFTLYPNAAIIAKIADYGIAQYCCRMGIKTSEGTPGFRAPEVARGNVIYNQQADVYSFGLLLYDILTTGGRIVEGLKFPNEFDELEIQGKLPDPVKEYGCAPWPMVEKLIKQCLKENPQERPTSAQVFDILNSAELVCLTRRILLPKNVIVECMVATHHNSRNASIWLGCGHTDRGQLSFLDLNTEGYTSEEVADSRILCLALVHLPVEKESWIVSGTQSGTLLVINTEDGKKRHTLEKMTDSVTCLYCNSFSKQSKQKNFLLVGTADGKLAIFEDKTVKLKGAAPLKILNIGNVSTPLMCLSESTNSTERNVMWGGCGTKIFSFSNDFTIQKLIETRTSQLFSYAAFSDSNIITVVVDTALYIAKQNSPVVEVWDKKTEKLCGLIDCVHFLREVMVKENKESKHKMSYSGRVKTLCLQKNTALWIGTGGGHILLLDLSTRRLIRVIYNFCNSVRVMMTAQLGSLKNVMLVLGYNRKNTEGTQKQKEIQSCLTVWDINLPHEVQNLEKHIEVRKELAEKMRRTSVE
Sequence of Serine/threonine-protein kinase SBK1 (Homo sapiens) (Q52WX2 whole entry, the tested form may be a part): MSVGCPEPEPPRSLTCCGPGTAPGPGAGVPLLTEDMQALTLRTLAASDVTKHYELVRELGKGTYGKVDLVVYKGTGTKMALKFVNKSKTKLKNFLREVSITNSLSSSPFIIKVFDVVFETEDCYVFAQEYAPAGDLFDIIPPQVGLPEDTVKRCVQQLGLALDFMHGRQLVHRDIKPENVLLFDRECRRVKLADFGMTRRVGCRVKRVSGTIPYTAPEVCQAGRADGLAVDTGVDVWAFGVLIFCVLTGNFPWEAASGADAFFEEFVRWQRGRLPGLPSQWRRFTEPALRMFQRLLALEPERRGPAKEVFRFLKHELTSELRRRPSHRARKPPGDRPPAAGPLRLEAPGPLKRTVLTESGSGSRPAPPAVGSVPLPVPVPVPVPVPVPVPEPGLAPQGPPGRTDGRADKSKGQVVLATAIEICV

## COc1cc(N2CCC(N3CCN(C(=O)CNc4cccc5c4C(=O)N(C4CCC(=O)NC4=O)C5=O)CC3)CC2)ccc1Nc1ncc(Cl)c(Nc2ccccc2P(C)(C)=O)n1 (centres undefined)
[1]
  Activity: 4.3%
NCI-H1975
  IC50: 42 nM
[2]
  Activity: Active
[3]
  Activity: 5.7%
Calu-1 [4]
  Activity: Active
[5]
  Activity: 3.9%
[6]
  Activity: 1.6%
[7]
  Activity: Active
[8]
  Activity: 8.3%
[9]
  Activity: 3%
[10]
  inhibition: Active
NCI-H2228 [11]
  Activity: Active
[12]
  Activity: inactive
EML4-ALK (Homo sapiens)
  Activity: Active
[13]
  Activity: Active
[14]
  Activity: 4%
[15]
  Activity: 3.8%
[16]
  Activity: Active
[17]
  Activity: 1.6%
SR
  Activity: Active
MDA-MB-231
  Activity: Active
[18]
  Activity: 1%
[19]
  Activity: 0%
NCI-H2228 [20]
  Activity: Active
[21]
  Activity: 0%
[22]
  Activity: 6.9%
[23]
  Activity: 3.5%
Calu-1 [24]
  Activity: Active
[25]
  Activity: Active

Reference: ChEMBL document CHEMBL5034001 (J Med Chem, 2021)
